According to patent publication US7141680B2, “Aromatic compounds possessing antifungal or antibacterial activity” (Genelabs Technologies, Inc., priority 2002, dated 2006):
Structures can show the parent of a compound that is named as a salt.

Experiments:
[1] = system: bacteria; test: Minimum inhibitory concentration (MIC) assay, bacteria; format: cell-based
Procedure: (§1) The assays described below were used to measure the minimum inhibitory concentration (MIC) of a compound necessary to inhibit visible growth of the organism tested. These assays are adapted from NCCLS protocols M7-A4 and M27-A (NCCLS vol 17:9 and vol 17:2) as modified by Sandven, S., Clin. Micro. (1999) 37:12, p. 3856–3859. MIC values for Aspergillus species were determined using NCCLS protocol M38-P.
(§2) All compounds were dissolved in 100% DMSO to a stock concentration of 10 mM and used fresh stock compounds in powder form were kept frozen until needed and used freshly. When used for test purposes, compounds were diluted in the appropriate media depending on the organism being tested.
(§3) For yeast and aspergillus species, seven 1:2 serial dilutions of compound in appropriate media buffered with MOPS at pH 7.0 were prepared such that the final starting test compound concentrations were 44.4 μM for yeast and 50 μM aspergillus species. For bacteria, dilutions were made in growth media used for the particular bacteria being tested.
Five well-separated colonies from a 24 h Sabouraud Dextrose plate incubated at 35° C. were picked and resuspended into 2 mL of normal saline. The O.D.530 was read and the culture was adjusted to 0.5 McFarland units with normal saline. A 1:2000 dilution was made with RPMI 1640 media buffered with MOPS at pH 7.0 and 100 μL of this inoculum preparation was added to an equal volume of test compound-containing media. 25 μL of the redox indicator Alamar Blue (Biosource International) was added to each well and the plates were incubated for 48 h at 35° C. Wells having yeast growth changed color from blue to pink.
Inoculums are made in the same manner as yeast except all dilutions are made in normal saline, with a final dilution of 1:200 and an inoculum of 10 μL.

[2] = system: Aspergillus species; test: Minimum inhibitory concentration (MIC) assay, filamentous fungi; format: cell-based; conditions: antifungal activity, lowest concentration at which 75% inhibition of growth is observed after 48 h
Procedure: as §1, §2, §3
Inoculums are made by incubating Aspergillus species for 7 days at 35° C. on potato dextrose agar slants. Slants are then covered with 1.0 mL of 0.85% saline, one drop of Tween 20 is added and colonies are teased with a sterile transfer loop to create a suspension which is allowed to sit for 5 min so heavier particles can drop out. The upper suspension is separated and adjusted to an optical density of 0.09 to 0.11. The resulting suspension is diluted 1:50, which yields 2× the final inoculum needed. Micro dilution trays are prepared as with yeast and incubated for 48 h at 35° C. For our purposes the MIC is defined as the lowest compound concentration at which 75% inhibition of growth is observed after 48 h.

| SMILES | MIC [1] [µM] | MIC [2] [µM] |
| --- | --- | --- |
| CC(=N)NCC1CCC(CNC(=O)c2cc3cc(NC(=O)c4ccc5[nH]c(C(=O)NCC6CCC(CNC(C)=N)CC6)cc5c4)ccc3[nH]2)CC1 (centres unmarked) [Compound 23, 1H-Indole-2,5-dicarboxylic acid 2-{[4-(acetimidoylamino-methyl)-cyclohexylmethyl]-amide} 5-[(2-{[4-(acetimidoylamino-methyl)-cyclohexylmethyl]-carbamoyl}-1H-indol-5-yl)-amide]] | ≤ 45.5 | ≤ 50 |
| N=C(N)NCC1CCCC(CNC(=O)c2cc3cc(NC(=O)c4ccc5[nH]c(C(=O)NCC6CCCC(CNC(=N)N)C6)cc5c4)ccc3[nH]2)C1 (centres unmarked) [Compound 24, 1H-Indole-2,5-dicarboxylic acid 2-[(3-guanidinomethyl-cyclohexylmethyl)-amide] 5-({2-[(3-guanidinomethyl-cyclohexylmethyl)-carbamoyl}-1H-indol-5-yl}-amide)] | ≤ 45.5 | ≤ 50 |
| N=C(N)NCc1cccc(CNC(=O)c2cc3cc(NC(=O)c4ccc5[nH]c(C(=O)NCc6cccc(CNC(=N)N)c6)cc5c4)ccc3[nH]2)c1 [Compound 25, 1H-Indole-2,5-dicarboxylic acid 2-(3-guanidinomethyl-benzylamide) 5-{[2-(3-guanidinomethyl-benzylcarbamoyl)-1H-indol-5-yl]-amide}] | ≤ 45.5 | ≤ 50 |
| N=C(N)NCCNC(=O)c1ccc2[nH]c(C(=O)Nc3ccc4cc(C(=O)NCCNC(=N)N)[nH]c4c3)cc2c1 [Compound 47, 1H-Indole-2,5-dicarboxylic acid 5-[(2-guanidino-ethyl)-amide] 2-{[2-(2-guanidino-ethylcarbamoyl)-1H-indol-6-yl]-amide}] | ≤ 45.5 | ≤ 50 |
| CNC(=N)NCCNC(=O)c1ccc2[nH]c(C(=O)Nc3ccc4cc(C(=O)NCCNC(=N)NC)[nH]c4c3)cc2c1 [Compound 48, 1H-Indole-2,5-dicarboxylic acid 5-{[2-(N′-methyl-guanidino)-ethyl]-amide} 2-({2-[2-(N′methyl-guanidino)-ethylcarbamoyl]-1H-indol-6-yl}-amide)] | ≤ 45.5 | ≤ 50 |
| O=C(NCCNC1=NCCN1)c1ccc2[nH]c(C(=O)Nc3ccc4cc(C(=O)NCCNC5=NCCN5)[nH]c4c3)cc2c1 [Compound 50, 1H-Indole-2,5-dicarboxylic acid 5-{[2-(4,5-dihydro-1H-imidazol-2-ylamino)-ethyl]amide} 2-({2-[2-(4,5-dihydro-1H-imidazol-2-ylamino)-ethylcarbamoyl]-1H-indol-6-yl}-amide)] | ≤ 45.5 | ≤ 50 |
| N=C(N)NCCCNC(=O)c1ccc2[nH]c(C(=O)Nc3ccc4cc(C(=O)NCCNC(=N)N)[nH]c4c3)cc2c1 [Compound 52, 1H-Indole-2,5-dicarboxylic acid 2-{[2-(2-guanidinoethylcarbamoyl)-1H-indol-6-yl]amide} 5-[(3-guanidinopropyl)amide]dihydrochloride] | ≤ 45.5 | ≤ 50 |
| C/N=C(\N)NCCCNC(=O)c1ccc2[nH]c(C(=O)Nc3ccc4cc(C(=O)NCCN/C(N)=N/C)[nH]c4c3)cc2c1 [Compound 53, 1H-Indole-2,5-dicarboxylic acid 2-({2-[2-(N′-methylguanidino)ethylcarbamoyl]-1H-indole-6-yl}amide) 5-{[3-(N′-methylguanidino)propyl]amide}dihydrochloride] | ≤ 45.5 | ≤ 50 |
| C/N=C(\NC)NCCCNC(=O)c1ccc2[nH]c(C(=O)Nc3ccc4cc(C(=O)NCCN/C(=N/C)NC)[nH]c4c3)cc2c1 [Compound 54, 1H-Indole-2,5-dicarboxylic acid 2-({2-[2-(N′,N″-dimethylguanidino)ethylcarbamoyl]-1H-indole-6-yl}amide) 5-{[3-(N′,N″-dimethylguanidino)propyl]amide}dihydrochloride] | ≤ 45.5 | ≤ 50 |
| CNC(=N)NCCNC(=O)c1ccc2[nH]c(C(=O)Nc3ccc4[nH]c(C(=O)NCCNC(=N)NC)cc4c3)cc2c1 [Compound 55] | ≤ 45.5 | ≤ 50 |
| O=C(NCCNC1=NCCN1)c1ccc2[nH]c(C(=O)Nc3ccc4[nH]c(C(=O)NCCNC5=NCCN5)cc4c3)cc2c1 [Compound 57, 1H-In dole-2,5-dicarboxylic acid 5-{[2-(4,5-dihydro-1H-imidazol-2-ylamino)ethyl]amide} 2-({2-[2-(4,5-dihydro-1H-imidazol-2-ylamino)ethylcarbamoyl]-1H-indole-5-yl}amide)dihydrochloride] | ≤ 45.5 | ≤ 50 |
| N=C(N)NCCCNC(=O)c1ccc2[nH]c(C(=O)Nc3ccc4[nH]c(C(=O)NCCNC(=N)N)cc4c3)cc2c1 [Compound 58, 1H-Indole-2,5-dicarboxylic acid 2-{[2-(2-guanidinoethylcarbamoyl)-1H-indol-5-yl]amide} 5-[(3-guanidinopropyl)amide]dihydrochloride] | ≤ 45.5 | ≤ 50 |
| C/N=C(\N)NCCCNC(=O)c1ccc2[nH]c(C(=O)Nc3ccc4[nH]c(C(=O)NCCN/C(N)=N/C)cc4c3)cc2c1 [Compound 59, 1H-Indole-2,5-dicarboxylic acid 2-({2-[2-(N′methylguanidino)ethylcarbamoyl]-1H-indol-5-yl}amide) 5-{[3-(N′methylguanidino)propyl]amide}hydrochloride] | ≤ 45.5 | ≤ 50 |
| C/N=C(\NC)NCCCNC(=O)c1ccc2[nH]c(C(=O)Nc3ccc4[nH]c(C(=O)NCCN/C(=N/C)NC)cc4c3)cc2c1 [Compound 60, 1H-Indole-2,5-dicarboxylic acid 2-({2-[2-(N′,N″-dimethylguanidino)ethylcarbamoyl]-1H-indol-5-yl}amide) 5-{[3-(N′,N″-dimethylguanidino)propyl]amide}hydrochloride] | ≤ 45.5 | ≤ 50 |
| N=C(N)CCNC(=O)c1cc2cc(NC(=O)c3cc4cc(C(=O)NCCNC(=N)N)ccc4[nH]3)ccc2[nH]1 [Compound 61, 1H-Indole-2,5-dicarboxylic acid 2-{[2-(2-carbamimidoylethylcarbamoyl)-1H-indol-5-yl]amide} 5-[(2-guanidinoethyl)amide]dihydrochloride] | ≤ 45.5 | ≤ 50 |
| N=C(N)NCCCNC(=O)c1cc2ccc(NC(=O)c3cc4cc(C(=O)NCCNC(=N)N)ccc4[nH]3)cc2[nH]1 [Compound 62, 1H-Indole-2,5-dicarboxylic acid 5-[(2-guanidino-ethyl)-amide] 2-{[2-(3-guanidino-propylcarbamoyl)-1H-indol-6-yl]-amide}] | ≤ 45.5 | ≤ 50 |
| CNC(=N)NCCCNC(=O)c1cc2ccc(NC(=O)c3cc4cc(C(=O)NCCNC(=N)NC)ccc4[nH]3)cc2[nH]1 [Compound 63, 1H-Indole-2,5-dicarboxylic acid 5-{[2-(N′-methyl-guanidino)-ethyl]-amide} 2-({2-[3-(N′-methyl-guanidino)-propylcarbamoyl]-1H-indol-6-yl}-amide)] | ≤ 45.5 | ≤ 50 |
| C/N=C(\NC)NCCCNC(=O)c1cc2ccc(NC(=O)c3cc4cc(C(=O)NCCN/C(=N/C)NC)ccc4[nH]3)cc2[nH]1 [Compound 64] | ≤ 45.5 | ≤ 50 |
| N=C(N)NCCCNC(=O)c1cc2cc(NC(=O)c3cc4cc(C(=O)NCCNC(=N)N)ccc4[nH]3)ccc2[nH]1 [Compound 67, 1H-Indole-2,5-dicarboxylic acid 5-[(2-guanidino-ethyl)-amide] 2-{[2-(3-guanidino-propylcarbamoyl)-1H-indol-5-yl]-amide}] | ≤ 45.5 | ≤ 50 |
| C/N=C(\N)NCCCNC(=O)c1cc2cc(NC(=O)c3cc4cc(C(=O)NCCNC(=N)NC)ccc4[nH]3)ccc2[nH]1 [Compound 68, 1H-Indole-2,5-dicarboxylic acid 5-{[2-(N′-methyl-guanidino)-ethyl]-amide} 2-({2-[3-(N′-methyl-guanidino)-propylcarbamoyl]-1H-indol-5-yl}-amide)] | ≤ 45.5 | ≤ 50 |
| C/N=C(\NC)NCCCNC(=O)c1cc2cc(NC(=O)c3cc4cc(C(=O)NCCN/C(=N/C)NC)ccc4[nH]3)ccc2[nH]1 [Compound 69, 1H-Indole-2,5-dicarboxylic acid 2-{[2-(N′,N″-dimethyl-guanidino)-ethyl]-amide} 5-({2-[3-(7N′,N″-dimethyl-guanidino)-propylcarbamoyl]-1H-indol-5-yl}-amide)] | ≤ 45.5 | ≤ 50 |
| N=C(N)NCCCNC(=O)c1ccc2[nH]c(C(=O)Nc3ccc4cc(C(=O)NCCCNC(=N)N)[nH]c4c3)cc2c1 [Compound 72, 1H-Indole-2,5-dicarboxylic acid 5-[(3-guanidino-propyl)-amide] 2-{[2-(3-guanidino-propylcarbamoyl)-1H-indol-6-yl-]-amide}] | ≤ 45.5 | ≤ 50 |
